Assay [1] concerns the target 1-phosphatidylinositol 4,5-bisphosphate phosphodiesterase beta-3 (Homo sapiens, UniProt Q01970). The experiment in a line: Fluorescence-based biochemical high throughput dose response assay to identify inhibitors of phospholipase C isozymes (PLC-B3).
Assay [2] addresses 1-phosphatidylinositol 4,5-bisphosphate phosphodiesterase gamma-1 (Homo sapiens, UniProt P19174). The experiment in a line: Counterscreen for inhibitors of phospholipase C isozymes (PLC-B3): Fluorescence-based biochemical high throughput dose response assay to identify inhibitors of phospholipase C isozymes (PLC-gamma1).
The target of a further assay is Protein Tat (Human immunodeficiency virus type 1 group M subtype B (isolate HXB2)(HIV-1), UniProt P04608). It counts as functional.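 Further: tat binding to TAR RNA read out by fluorescence polarization.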
Assay [3] has as its target T1, Rac GTPase-activating protein 1 (Homo sapiens, UniProt Q9H0H5).
T1 sequence (Q9H0H5 whole entry): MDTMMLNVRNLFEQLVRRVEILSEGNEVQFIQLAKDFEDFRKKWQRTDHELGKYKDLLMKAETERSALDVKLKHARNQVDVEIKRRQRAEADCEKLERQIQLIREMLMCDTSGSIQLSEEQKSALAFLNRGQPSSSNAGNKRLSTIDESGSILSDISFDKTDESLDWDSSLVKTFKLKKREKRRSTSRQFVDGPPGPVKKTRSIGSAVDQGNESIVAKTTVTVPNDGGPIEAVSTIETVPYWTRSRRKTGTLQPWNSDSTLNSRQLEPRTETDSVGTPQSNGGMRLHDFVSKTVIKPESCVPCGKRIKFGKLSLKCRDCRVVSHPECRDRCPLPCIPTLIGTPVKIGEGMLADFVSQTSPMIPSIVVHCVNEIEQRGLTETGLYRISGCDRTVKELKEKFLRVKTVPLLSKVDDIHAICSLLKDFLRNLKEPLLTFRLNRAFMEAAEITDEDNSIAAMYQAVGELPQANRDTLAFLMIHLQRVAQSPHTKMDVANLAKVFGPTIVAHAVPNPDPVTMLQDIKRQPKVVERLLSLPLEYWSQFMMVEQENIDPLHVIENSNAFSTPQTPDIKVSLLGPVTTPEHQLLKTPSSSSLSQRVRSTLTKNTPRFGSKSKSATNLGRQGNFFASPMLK
The experiment in a line: MgcRacGAP GTPase-activating activity inhibitors, confirmation, biochemical, ADP Hunter fluorescence, primary and confirmatory (AID 624330). It counts as functional.

A short description of assay [4]: HepG2 cell cytotoxicity, dose response, cytotoxicity control, cherry-picked samples (AID 1159577). It counts as functional, cell-based.
Assay [5] can be described thus: P. falciparum Dd2 growth inhibitors, dose response, SYBR Green, cherry-picked samples (AID 1159567). It counts as functional, cell-based.
A short description of assay [6]: P. falciparum Dd2 growth inhibitors, dose response, SYBR Green, dry powder samples (AID 1159566).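 Further: potency for growth inhibition with lower SYBR green DNA signal.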 It counts as functional, cell-based.
Assay [7] in a line: P. falciparum 3D7-ScDHODH growth inhibitors, dose response, SYBR Green, dry powder samples (AID 1159570).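 Further: parasite growth measured after 72 hours of compound exposure.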 It counts as functional, cell-based.
Assay [8] in a line: P. falciparum ATP4 D1247Y mutant growth inhibitors, dose response, NITD609-resistant line, SYBR Green, dry powder (AID 1159571).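 Further: parasites synchronized at ring stage by sorbitol before testing.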 It counts as functional, cell-based.
Assay [9] is described as follows: MC4R antagonists, dose response, counter-screen for LGR2 antagonist project, cell-based, plate reader, cherry pick (AID 743444).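 Further: transfected HEK 293 cells stimulated with alpha-MSH peptide; potency of inhibitors of the alpha-MSH evoked signal.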 It counts as functional. Background: The purpose of a counterscreen is to sort out artefacts and off-target activity.
Assay [10] can be described thus: HEK293 cell cytotoxicity, dose response, cytotoxicity control, plate reader, cherry-picked samples (AID 743446). It counts as functional, cell-based.
Assay [11] is described as follows: HepG2 cell cytotoxicity, dose response, cytotoxicity control, plate reader, cherry-pick, antagonist series (AID 743416). It counts as functional, cell-based.
The nature of assay [12]: LGR2 antagonists, dose response, cell-based, HEK293, CRE-luciferase reporter, cherry pick, set 2 (AID 743343).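 Further: transfected cells were stimulated with diluted bursicon conditioned medium after compound addition.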 It counts as functional.
Assay [13] in a line: A549 cell cytotoxicity, dose response, cytotoxicity control, plate reader, cherry-pick, antagonist series (AID 743412). It counts as functional, cell-based.
A short description of assay [14]: Shn3 3'UTR reporter inhibitors, dose response, cell-based, Clone20 osteoblasts, firefly luciferase, cherry-picked (AID 624132).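 Further: firefly luciferase luminescence from reporter carrying the Shn3 3'UTR in osteoblasts.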 It counts as functional.
Assay [15] is described as follows: control 3'UTR Renilla luciferase suppression, dose response, counter-screen for Shn3 inhibitor project, cell-based, Clone20-Shn3RL, cherry-picked (AID 624133). It counts as functional.
Assay [16] deals with COUP transcription factor 2 (Homo sapiens, UniProt P24468). Description: Luminescence-based cell-based high throughput dose response assay to identify inhibitors of COUP-TFII (NR2F2). It counts as functional.
In assay [17] the target is Bifunctional protein GlmU (Mycobacterium tuberculosis, UniProt P9WMN3). The experiment in a line: Inhibitors of Mycobacterial Glucosamine-1-phosphate acetyl transferase (GlmU). Secondary screen. Also on record: species or system Mycobacterium tuberculosis H37Rv.
Assay [18] is described as follows: HEK293T cytotoxicity, dose response, cytotoxicity control for miR-122 modulator project, cell-based, activator set, cherry-pick (AID 720690).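 Further: HEK293T human cells scored for general mammalian cytotoxicity.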 It counts as functional.
The nature of assay [19]: miR-122 activators in hepatoma reporter cells, dose response, cell-based, Huh7 psiCHECK-miR122, Renilla luciferase, cherry-picked (AID 651956).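 Further: huh7 hepatoma cells stably carrying a psiCHECK-2 miR-122 sensor plasmid; renilla luciferase signal reporting endogenous miR-122 activity after 48 h compound exposure.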 It counts as functional.
Assay [20] is described as follows: P. falciparum Dd2 growth inhibitors, dose response, SYBR Green, dry powder samples, set 9 (AID 1159568). It counts as functional, cell-based.
Assay [21] in a line: HEK293T cytotoxicity, dose response, cytotoxicity control for miR-122 modulator project, cell-based, inhibitor set, cherry-pick, set 2 (AID 720697). It counts as functional.
Assay [22] in a line: A2780 ovarian cancer cell cytotoxicity, dose response, cytotoxicity control, plate reader, dry powder samples (AID 743046). It counts as functional, cell-based.
Assay [23] is described as follows: cytotoxicity in OVCAR8 ovarian cancer cells, dose response, PAX8 project, cell-based, plate reader, dry powder samples (AID 743197). It counts as functional. The conditions noted are these: OVCAR-8.
The target in another assay is Paired box protein Pax-8 (Homo sapiens, UniProt Q06710). The experiment in a line: inhibitors of PAX8-driven TPO luciferase reporter, dose response, RMG-I cells, cherry-pick (AID 687027).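 Further: luciferase reporter driven by Pax8 target thyroperoxidase promoter measured by SteadyGlo luminescence.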 It counts as functional, cell-based. Background: A reporter such as luciferase makes a cellular process visible.
The nature of assay [24]: cytotoxicity toward Colo320 cells – cell-based, CellTiter-Glo luminescence, IC50, dose response (AID 1117334). It counts as functional. As to conditions: COLO 320.
Assay [25] in a line: SNU-C1 cell viability reduction, dose response, CellTiter-Glo luminescence (AID 1117323). It counts as functional, cell-based. A general note: ATP-based viability assays read luminescence as a measure of living cells.
The nature of assay [26]: RKO cell viability reduction, dose response, CellTiter-Glo luminescence (AID 1117322). It counts as functional.
A short description of assay [27]: CellTiter-Glo luminescent dose response of DLD-1 viability loss (AID 1117352). It counts as functional.
Assay [28] can be described thus: Concentration-dependent survival of SW480 colon cancer line, luminescence detection with CellTiter-Glo, half-maximal inhibitory concentration (AID 1117338). It counts as functional.
Assay [29] in a line: cytotoxicity toward HT-29 cells – cell-based, CellTiter-Glo luminescence, IC50, dose response (AID 1117330). It counts as functional.
Assay [30] is described as follows: cytotoxicity toward HCT116 cells – cell-based, CellTiter-Glo luminescence, IC50, dose response (AID 1117332). It counts as functional. The conditions noted are these: HCT-116.

Calls of active or inactive are those of the source.

Sequence of 1-phosphatidylinositol 4,5-bisphosphate phosphodiesterase gamma-1 (P19174 whole entry): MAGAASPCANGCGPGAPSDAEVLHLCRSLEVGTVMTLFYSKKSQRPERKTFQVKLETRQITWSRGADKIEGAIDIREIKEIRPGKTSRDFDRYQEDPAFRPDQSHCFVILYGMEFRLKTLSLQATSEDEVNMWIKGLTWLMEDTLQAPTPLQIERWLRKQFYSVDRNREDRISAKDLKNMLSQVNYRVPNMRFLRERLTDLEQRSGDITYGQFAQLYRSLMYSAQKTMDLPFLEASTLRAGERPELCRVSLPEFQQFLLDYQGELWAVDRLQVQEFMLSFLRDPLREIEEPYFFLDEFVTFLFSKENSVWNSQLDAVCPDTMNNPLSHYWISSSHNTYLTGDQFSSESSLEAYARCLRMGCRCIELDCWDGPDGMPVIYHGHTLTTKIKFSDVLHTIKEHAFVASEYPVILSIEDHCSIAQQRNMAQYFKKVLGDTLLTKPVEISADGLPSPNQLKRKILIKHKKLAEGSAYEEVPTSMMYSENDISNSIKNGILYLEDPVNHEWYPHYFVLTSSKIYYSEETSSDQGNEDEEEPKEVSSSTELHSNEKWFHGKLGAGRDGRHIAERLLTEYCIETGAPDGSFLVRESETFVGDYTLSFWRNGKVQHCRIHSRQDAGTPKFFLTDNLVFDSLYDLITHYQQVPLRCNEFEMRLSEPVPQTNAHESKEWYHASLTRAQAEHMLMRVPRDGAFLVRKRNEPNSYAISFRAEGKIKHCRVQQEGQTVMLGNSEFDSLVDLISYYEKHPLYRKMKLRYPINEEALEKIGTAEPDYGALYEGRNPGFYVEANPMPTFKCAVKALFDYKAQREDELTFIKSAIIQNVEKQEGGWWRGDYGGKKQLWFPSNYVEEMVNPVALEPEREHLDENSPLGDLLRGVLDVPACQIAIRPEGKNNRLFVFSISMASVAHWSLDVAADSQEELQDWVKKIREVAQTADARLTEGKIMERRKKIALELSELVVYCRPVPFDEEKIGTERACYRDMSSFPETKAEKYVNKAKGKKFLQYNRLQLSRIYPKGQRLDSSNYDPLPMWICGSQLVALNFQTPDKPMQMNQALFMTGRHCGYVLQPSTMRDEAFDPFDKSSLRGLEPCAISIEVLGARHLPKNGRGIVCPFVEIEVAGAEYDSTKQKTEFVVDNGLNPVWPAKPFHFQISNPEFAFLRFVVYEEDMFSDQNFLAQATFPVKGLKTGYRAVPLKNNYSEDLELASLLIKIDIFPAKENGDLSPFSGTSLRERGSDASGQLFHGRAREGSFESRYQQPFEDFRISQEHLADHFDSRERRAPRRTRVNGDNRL
Sequence of 1-phosphatidylinositol 4,5-bisphosphate phosphodiesterase beta-3 (Q01970 whole entry): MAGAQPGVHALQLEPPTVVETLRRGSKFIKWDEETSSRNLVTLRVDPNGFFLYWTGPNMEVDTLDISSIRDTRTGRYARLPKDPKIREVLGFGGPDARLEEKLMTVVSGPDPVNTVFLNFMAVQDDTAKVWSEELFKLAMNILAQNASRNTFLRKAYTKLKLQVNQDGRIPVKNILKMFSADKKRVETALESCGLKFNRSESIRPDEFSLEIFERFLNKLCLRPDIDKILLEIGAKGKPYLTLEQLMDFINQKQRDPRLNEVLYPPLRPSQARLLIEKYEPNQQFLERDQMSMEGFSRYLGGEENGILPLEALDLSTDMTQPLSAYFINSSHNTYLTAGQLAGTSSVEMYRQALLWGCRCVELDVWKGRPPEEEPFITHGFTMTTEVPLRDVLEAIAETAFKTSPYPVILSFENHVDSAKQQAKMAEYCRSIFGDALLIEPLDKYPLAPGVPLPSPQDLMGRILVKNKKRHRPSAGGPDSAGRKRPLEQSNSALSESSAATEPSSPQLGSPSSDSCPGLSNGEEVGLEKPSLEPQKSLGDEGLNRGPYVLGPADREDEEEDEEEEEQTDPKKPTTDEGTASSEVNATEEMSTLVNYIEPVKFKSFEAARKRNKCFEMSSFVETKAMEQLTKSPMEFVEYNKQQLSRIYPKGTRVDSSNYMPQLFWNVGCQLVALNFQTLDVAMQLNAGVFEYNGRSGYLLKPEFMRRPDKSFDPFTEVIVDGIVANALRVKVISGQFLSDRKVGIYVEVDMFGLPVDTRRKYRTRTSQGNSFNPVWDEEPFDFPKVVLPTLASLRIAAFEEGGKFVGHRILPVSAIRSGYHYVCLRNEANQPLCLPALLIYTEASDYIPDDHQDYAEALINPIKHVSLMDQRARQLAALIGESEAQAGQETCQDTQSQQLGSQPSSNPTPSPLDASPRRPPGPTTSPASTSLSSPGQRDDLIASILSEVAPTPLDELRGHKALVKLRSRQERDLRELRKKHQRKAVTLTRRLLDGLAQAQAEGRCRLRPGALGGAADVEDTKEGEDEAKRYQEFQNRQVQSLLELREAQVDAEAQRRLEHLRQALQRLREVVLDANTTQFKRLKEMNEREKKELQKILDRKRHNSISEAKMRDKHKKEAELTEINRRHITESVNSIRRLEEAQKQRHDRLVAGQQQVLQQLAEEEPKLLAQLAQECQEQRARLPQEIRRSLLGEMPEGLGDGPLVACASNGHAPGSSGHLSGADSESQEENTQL
Sequence of Bifunctional protein GlmU (P9WMN3 whole entry): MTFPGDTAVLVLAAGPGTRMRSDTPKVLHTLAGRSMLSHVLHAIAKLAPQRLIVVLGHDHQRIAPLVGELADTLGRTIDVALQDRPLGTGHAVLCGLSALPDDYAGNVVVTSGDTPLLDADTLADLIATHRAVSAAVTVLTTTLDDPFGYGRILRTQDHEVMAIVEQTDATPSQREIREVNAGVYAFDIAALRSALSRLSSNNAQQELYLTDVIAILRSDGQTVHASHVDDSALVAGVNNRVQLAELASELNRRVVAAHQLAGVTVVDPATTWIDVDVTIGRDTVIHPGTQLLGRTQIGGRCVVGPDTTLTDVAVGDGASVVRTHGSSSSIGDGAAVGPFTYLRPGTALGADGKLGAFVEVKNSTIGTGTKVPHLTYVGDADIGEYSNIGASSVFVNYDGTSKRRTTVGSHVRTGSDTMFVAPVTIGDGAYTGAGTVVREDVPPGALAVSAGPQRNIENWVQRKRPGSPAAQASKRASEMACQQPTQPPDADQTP
Sequence of Paired box protein Pax-8 (Q06710 whole entry): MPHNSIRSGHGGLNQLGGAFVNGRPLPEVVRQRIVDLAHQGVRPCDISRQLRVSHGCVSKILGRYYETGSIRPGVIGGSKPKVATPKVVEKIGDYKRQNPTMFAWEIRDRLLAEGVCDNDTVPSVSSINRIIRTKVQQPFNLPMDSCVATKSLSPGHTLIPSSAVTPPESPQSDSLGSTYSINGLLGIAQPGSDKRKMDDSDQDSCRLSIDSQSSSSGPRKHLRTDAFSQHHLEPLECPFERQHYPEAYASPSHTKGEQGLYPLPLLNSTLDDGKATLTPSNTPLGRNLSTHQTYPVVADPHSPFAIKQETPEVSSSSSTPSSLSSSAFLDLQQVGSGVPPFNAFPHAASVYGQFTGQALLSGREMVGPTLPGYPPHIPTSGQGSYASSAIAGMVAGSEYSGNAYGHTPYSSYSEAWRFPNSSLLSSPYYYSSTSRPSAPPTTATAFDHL
Sequence of COUP transcription factor 2 (P24468 whole entry): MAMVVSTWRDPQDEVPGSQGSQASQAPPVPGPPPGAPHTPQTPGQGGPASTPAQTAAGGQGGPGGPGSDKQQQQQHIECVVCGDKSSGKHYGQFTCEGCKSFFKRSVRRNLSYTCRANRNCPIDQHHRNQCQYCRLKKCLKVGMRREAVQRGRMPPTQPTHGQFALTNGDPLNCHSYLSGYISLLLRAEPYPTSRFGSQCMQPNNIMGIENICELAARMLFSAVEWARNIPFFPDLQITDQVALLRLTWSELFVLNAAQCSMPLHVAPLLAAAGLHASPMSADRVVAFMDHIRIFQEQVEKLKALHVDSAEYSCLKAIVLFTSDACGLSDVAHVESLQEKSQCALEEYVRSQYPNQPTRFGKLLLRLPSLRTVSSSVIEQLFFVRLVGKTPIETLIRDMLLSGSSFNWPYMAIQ
Sequence of Protein Tat (P04608 whole entry): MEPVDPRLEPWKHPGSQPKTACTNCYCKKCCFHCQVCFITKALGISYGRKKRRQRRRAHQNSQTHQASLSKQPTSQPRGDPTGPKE

Take `COC(=O)C1CCCN1C(=O)COc1ccc(Br)cc1Cl` (centres undefined): the IC50 in assay [1] and in assay [2] was > 122 µM (inactive) each time.
As for `COc1ccc(N2C(=O)CC(Nc3ccc(N4CCOCC4)cc3)C2=O)c(OC)c1` (centres undefined), the results for the IC50 (at Protein Tat; in [3]) were 12.4 µM (inconclusive) and 174 µM (active), respectively.
Consider `COc1ccc(NC(=O)N2CC(=O)N3[C@@H](CO)[C@H](c4ccc(C#CCC5CCCC5)cc4)[C@@H]3C2)cc1`, for which the AC50 is > 42 µM (inactive) in [4]; 3.79 µM (active) in assay [5]; 2.17 µM (active) in assay [6]; 2.19 µM (active) in assay [7]; 2.84 µM (active) in assay [8].
For `CC[C@H]1CN2CCc3cc(OC)c(OC)cc3C2C[C@@H]1C[C@H]1NCCc2cc(OC)c(OC)cc21` (some centres undefined), the AC50 in assay [9] is 0.25 µM (active); in assay [10] it was 0.0731 µM (active); in assay [11], 0.0959 µM (active); in assay [12], 0.257 µM (active); in [13] it was 0.0576 µM (active); in assay [14], < 0.26 µM (active). Moreover, the AC50 in [15] was < 0.26 µM (active). Moreover, the IC50 in [16] is 0.209 µM (active).
As for `O=C(O)CSCC(=O)Nc1ccc(-c2nc3ccccc3s2)cc1`, the IC50 in [17] is 86.8 µM (active).
With `CN1C(=O)c2cc(NC(=O)c3ccc(C(F)(F)F)cc3)ccc2OC[C@H]2O[C@@H](CC(=O)NCc3ccc4c(c3)OCO4)CC[C@H]21`, the AC50 is 16.2 µM (active) in assay [18], 10.9 µM (active) in assay [19], 17.8 µM (active) in [20] and 7.69 µM (active) in assay [21].
For the compound `COc1ccc(C#Cc2ccc([C@@H]3[C@H](CO)N4CCCCN(C(=O)Nc5ccc(F)cc5)C[C@@H]34)cc2)cc1`, the AC50 in assay [22] was 13.9 µM (active); in [23], 41.2 µM (active); at Paired box protein Pax-8, 15.5 µM (active).
On to `Cc1c(NC(=O)c2cccnc2)c(=O)n(-c2ccccc2)n1C` [NIFENAZONE], for which the IC50 in [24], in assay [25], in [26], in assay [27], in assay [28] and in assay [29] was > 20 µM (inactive) in each case. Also, in assay [30], the IC50 is > 20 µM (inactive).
Regarding `Fc1ccc(-c2cc(-c3cccs3)cc(-c3ccccc3)n2)cc1`, the IC50 in assay [1] and in assay [2] was > 123 µM (inactive) in each case.

Broadly, the IC50 is the point on the concentration scale where inhibition reaches its midpoint. What is called AC50 is the midpoint of the concentration-response curve, whichever way the signal moves.

Values taken from ChEMBL document CHEMBL1201862, “PubChem BioAssay data set” (2004).
